Measurements as given in article PMC11320178 (Chemical Science, 2024).
Where no end group is shown, it is not given here.

Columns and labels:
[1] = format: physicochemical; details: equimolar semicarbazide derivative (∼100 μM) in PBS pH 7.4, 20 min, LC-MS
[2] = Stability of the cyclic peptide against ROS environment; format: physicochemical; details: P1 ∼100 μM, ∼150 μM H2O2 in PBS pH 7.4, after 6 h, LC-MS
[3] = pH 2

Question: For “CIITRPC (also: sidechain bridge or staple (positions not given here)) [P1]”, which “Linearization by semicarbazide (diazaborine conjugate formation)” value [1] is on record?
Answer: Its value is “linearized”.

Question: And the “Stability in H2O2” value [2]?
Answer: The value was “remarkable stability”.

Question: And the “Stability under a wide range of pH values (no complete dissociation of the thiazolidine ring)” value [3]?
Answer: The value was “high stability”.
